system: not listed separately; assay: Toxicity in immunodeficient nude mouse xenografted with human MGC-803 cells assessed as reduction in body weight at 10 mg/kg, ip administered for 3 weeks relative to control; assay type: organism-based; set-up: scale not given: the % may be the effect or the level left; details: in vivo, 504 h

SMILES | Activity [%]
O=c1[nH]cc(F)c(=O)[nH]1 [FLUOROURACIL] | 14.2

system: MGC-803; assay: Antiproliferative activity against human MGC-803 cells assessed as reduction in cell viability after 24 hrs by MTT assay; assay type: functional, cell-based; details: MGC-803, 24 h

SMILES | IC50 [µM]
COc1cc2c(cc1O)[C@@H]1Cc3ccc(OC)c(O)c3CN1CC2 [SCOULERINE] | 12.6
COc1cc2c(cc1OC)C1Cc3ccc4c(c3CN1CC2)OCO4 (stereo not drawn) | 94.3
COc1cc2c(cc1O)C1Cc3ccc4c(c3CN1CC2)OCO4 (stereo not drawn) [CHEILANTHIFOLINE] | 83.2
CN1CCc2cc3c(cc2C(=O)Cc2ccc4c(c2C1)OCO4)OCO3 | 94.5
COc1cc(/C=C/C(=O)NCCc2ccc(O)cc2)ccc1O [N-TRANS-FERULOYL TYRAMINE] | 98.3
O=c1c2c3c(ccc2cc2n1CCc1cc4c(cc1-2)OCO4)OCO3 | 61.5
CC(=O)c1ccc2c(c1Cn1ccc3cc4c(cc3c1=O)OCO4)OCO2 | 79.9
O=c1[nH]cc(F)c(=O)[nH]1 [FLUOROURACIL] | 28.6
COc1cc2c(cc1C(=O)c1nccc3cc4c(cc13)OCO4)OCO2 | 7.8
c1cc2c(c3c1CC1c4cc5c(cc4CCN1C3)OCO5)OCO2 (stereo not drawn) | 107
COc1cc2c(cc1Cc1nccc3cc4c(cc13)OCO4)OCO2 | > 150
COc1ccc2c(c1OC)CN(C)CCc1cc3c(cc1C(=O)C2)OCO3 [ALLOCRYPTOPINE] | 109
CCOC(=O)c1c(C(=O)c2nccc3cc4c(cc23)OCO4)ccc2c1OCO2 | 76
O=C1NCCc2cc3c(cc21)OCO3 [NOROXYHYDRASTININE] | > 150
CN1CCc2cc3c(cc2[C@H]1[C@H]1OC(=O)c2c1ccc1c2OCO1)OCO3 | > 150

system: GES1; assay: Antiproliferative activity against human GES1 cells assessed as reduction in cell viability after 24 hrs by MTT assay; assay type: functional, cell-based; details: GES1, 24 h

SMILES | IC50 [µM]
COc1cc2c(cc1O)[C@@H]1Cc3ccc(OC)c(O)c3CN1CC2 [SCOULERINE] | 95.3
COc1cc2c(cc1OC)C1Cc3ccc4c(c3CN1CC2)OCO4 (stereo not drawn) | > 150
COc1cc2c(cc1O)C1Cc3ccc4c(c3CN1CC2)OCO4 (stereo not drawn) [CHEILANTHIFOLINE] | 114
CN1CCc2cc3c(cc2C(=O)Cc2ccc4c(c2C1)OCO4)OCO3 | > 150
COc1cc(/C=C/C(=O)NCCc2ccc(O)cc2)ccc1O [N-TRANS-FERULOYL TYRAMINE] | > 150
O=c1c2c3c(ccc2cc2n1CCc1cc4c(cc1-2)OCO4)OCO3 | > 150
CC(=O)c1ccc2c(c1Cn1ccc3cc4c(cc3c1=O)OCO4)OCO2 | 137
O=c1[nH]cc(F)c(=O)[nH]1 [FLUOROURACIL] | 49.6
COc1cc2c(cc1C(=O)c1nccc3cc4c(cc13)OCO4)OCO2 | 76
c1cc2c(c3c1CC1c4cc5c(cc4CCN1C3)OCO5)OCO2 (stereo not drawn) | > 150
COc1cc2c(cc1Cc1nccc3cc4c(cc13)OCO4)OCO2 | > 150
COc1ccc2c(c1OC)CN(C)CCc1cc3c(cc1C(=O)C2)OCO3 [ALLOCRYPTOPINE] | > 150
CCOC(=O)c1c(C(=O)c2nccc3cc4c(cc23)OCO4)ccc2c1OCO2 | 147
O=C1NCCc2cc3c(cc21)OCO3 [NOROXYHYDRASTININE] | > 150
CN1CCc2cc3c(cc2[C@H]1[C@H]1OC(=O)c2c1ccc1c2OCO1)OCO3 | > 150

system: MGC-803; assay: Antitumor activity against human MGC-803 cells xenografted in immunodeficient nude mouse assessed as tumor weight at 10 mg/kg, ip administered for 3 weeks (reference value: 157.8 mg); assay type: functional; details: not given

SMILES | Activity [mg]
O=c1[nH]cc(F)c(=O)[nH]1 [FLUOROURACIL] | 157.8

system: HGC-27; assay: Antiproliferative activity against human HGC-27 cells assessed as reduction in cell viability after 24 hrs by MTT assay; assay type: functional, cell-based; details: HGC-27, 24 h

SMILES | IC50 [µM]
COc1cc2c(cc1O)[C@@H]1Cc3ccc(OC)c(O)c3CN1CC2 [SCOULERINE] | 6.1
COc1cc2c(cc1OC)C1Cc3ccc4c(c3CN1CC2)OCO4 (stereo not drawn) | 81
COc1cc2c(cc1O)C1Cc3ccc4c(c3CN1CC2)OCO4 (stereo not drawn) [CHEILANTHIFOLINE] | 38.3
CN1CCc2cc3c(cc2C(=O)Cc2ccc4c(c2C1)OCO4)OCO3 | 121
COc1cc(/C=C/C(=O)NCCc2ccc(O)cc2)ccc1O [N-TRANS-FERULOYL TYRAMINE] | 84.5
O=c1c2c3c(ccc2cc2n1CCc1cc4c(cc1-2)OCO4)OCO3 | 54.6
CC(=O)c1ccc2c(c1Cn1ccc3cc4c(cc3c1=O)OCO4)OCO2 | 53.8
O=c1[nH]cc(F)c(=O)[nH]1 [FLUOROURACIL] | 45.2
COc1cc2c(cc1C(=O)c1nccc3cc4c(cc13)OCO4)OCO2 | 9.3
c1cc2c(c3c1CC1c4cc5c(cc4CCN1C3)OCO5)OCO2 (stereo not drawn) | 55.1
COc1cc2c(cc1Cc1nccc3cc4c(cc13)OCO4)OCO2 | 122
COc1ccc2c(c1OC)CN(C)CCc1cc3c(cc1C(=O)C2)OCO3 [ALLOCRYPTOPINE] | 97.8
CCOC(=O)c1c(C(=O)c2nccc3cc4c(cc23)OCO4)ccc2c1OCO2 | 66.1
O=C1NCCc2cc3c(cc21)OCO3 [NOROXYHYDRASTININE] | 120
CN1CCc2cc3c(cc2[C@H]1[C@H]1OC(=O)c2c1ccc1c2OCO1)OCO3 | 100

system: MGC-803; assay: Antitumor activity against human MGC-803 cells xenografted in immunodeficient nude mouse assessed as tumor volume at 10 mg/kg, ip administered for 3 weeks (reference value: 1039.6 mm3); assay type: functional; details: not given

SMILES | Activity [mm3]
O=c1[nH]cc(F)c(=O)[nH]1 [FLUOROURACIL] | 375.4
